Structures can show the parent of a compound that is named as a salt.
Key:
human serum = settings: both in vitro and in vivo, judged by reduction in total hemolytic complement activity; cited from earlier work
complement system = settings: Br. J. Exp. Pathol. 33: 327 (1952); cited from earlier work
[1] = test system: hereditary angioneurotic edema; settings: literature reports; cited from earlier work
shunt pathway = assay: Test Code 036 (C-Shunt inhibitor), lysis of fragile human erythrocytes in autologous serum, cobra venom factor; type: biochemical; settings: in vitro; twofold serial dilution assay, higher well number indicates higher activity
Description: (§1) An active inhibitor protects C2 from C1 and C4; (ii) Test Code 035 (C3-C9 inhibitor)--This test determines the ability of the late components of human complement (C3-C9) to lyse EAC 142 in the presence of appropriate dilutions of the test compound. An active inhibitor protects EAC 142 from lysis by human C3-C9; (iii) Test Code 036 (C-Shunt inhibitor)--In this test human erythrocytes rendered fragile are lysed in autologous serum via the shunt pathway activated by cobra venom factor in the presence of appropriate dilutions of the test compound. Inhibition of the shunt pathway results in failure of lysis; (iv) Cap 50 Test-- Here, appropriate amounts of the test compound are added to a pool of guinea pig serum in vitro, after which the undiluted serum capillary tube assay of U.S. Pat. No. 3,876,376 is run. The concentration of compound inhibiting 50% is reported; and (v) Guinea Pig Intraperitoneal Test (GPIP)--Guinea Pigs weighing about 300 g are dosed intraperitoneally (i.p.) with 200 mg/kg of the test compound dissolved in saline and adjusted to pH 7-8. […] Percent inhibition is calculated by comparison with simultaneous controls. […]

[2] = test system: late components of human complement (C3-C9); assay: Test Code 035 (C3-C9 inhibitor), lysis of EAC 142; type: biochemical; parameters: key: N = Negative; settings: in vitro; twofold serial dilution assay
Description: as §1

activated human C1 = target: T1, activated human C1 (Homo sapiens, UniProt P09871); assay: Test Code 026 (C1 inhibitor); type: biochemical; settings: in vitro; twofold serial dilution assay, higher well number indicates higher activity
T1 sequence (P09871 438-688 limits assumed): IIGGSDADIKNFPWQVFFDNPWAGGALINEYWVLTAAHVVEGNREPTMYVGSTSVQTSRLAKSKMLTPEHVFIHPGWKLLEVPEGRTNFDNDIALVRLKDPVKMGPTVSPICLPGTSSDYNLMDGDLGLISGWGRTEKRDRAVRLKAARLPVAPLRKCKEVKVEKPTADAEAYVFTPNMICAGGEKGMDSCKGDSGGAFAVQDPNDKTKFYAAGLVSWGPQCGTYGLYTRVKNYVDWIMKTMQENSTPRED
T1 sequence (P09871 16-437 limits assumed): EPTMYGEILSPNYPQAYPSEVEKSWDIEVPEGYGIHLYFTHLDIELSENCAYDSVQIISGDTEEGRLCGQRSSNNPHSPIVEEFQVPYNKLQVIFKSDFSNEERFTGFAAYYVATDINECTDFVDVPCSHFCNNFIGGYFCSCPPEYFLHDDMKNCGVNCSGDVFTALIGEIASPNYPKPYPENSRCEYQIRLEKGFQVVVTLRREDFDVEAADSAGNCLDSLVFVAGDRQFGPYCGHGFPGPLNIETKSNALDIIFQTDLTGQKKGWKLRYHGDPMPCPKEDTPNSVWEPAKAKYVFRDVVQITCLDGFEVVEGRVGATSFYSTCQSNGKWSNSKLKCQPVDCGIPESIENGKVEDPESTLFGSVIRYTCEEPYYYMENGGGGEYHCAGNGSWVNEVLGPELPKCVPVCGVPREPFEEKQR
Description: as §1

complement activity = assay: Guinea Pig Intraperitoneal Test (GPIP); type: in vivo, Guinea Pigs; settings: 200 mg/kg i.p.
Description: An active inhibitor protects C2 from C1 and C4; (ii) Test Code 035 (C3-C9 inhibitor)--This test determines the ability of the late components of human complement (C3-C9) to lyse EAC 142 in the presence of appropriate dilutions of the test compound. An active inhibitor protects EAC 142 from lysis by human C3-C9; (iii) Test Code 036 (C-Shunt inhibitor)--In this test human erythrocytes rendered fragile are lysed in autologous serum via the shunt pathway activated by cobra venom factor in the presence of appropriate dilutions of the test compound. Inhibition of the shunt pathway results in failure of lysis; (iv) Cap 50 Test-- Here, appropriate amounts of the test compound are added to a pool of guinea pig serum in vitro, after which the undiluted serum capillary tube assay of U.S. Pat. No. 3,876,376 is run. The concentration of compound inhibiting 50% is reported; and (v) Guinea Pig Intraperitoneal Test (GPIP)--Guinea Pigs weighing about 300 g are dosed intraperitoneally (i.p.) with 200 mg/kg of the test compound dissolved in saline and adjusted to pH 7-8. Approximately 0.4 ml blood samples, taken by orbital sinus puncture 30 minutes and one hour after injections, are collected directly into centrifuge tubes; 5 ml blood samples, taken by decapitation 2 hours after injection, are collected directly into diSPo® beakers. The samples are allowed to clot, centrifuged, and the resultant sera are assayed for complement activity using the capillary complement assay. Percent inhibition is calculated by comparison with simultaneous controls. The results of the GPIP appear in Table I together with results of Test Code 026, 035, 036 and Cap 50.

## pentosanpolysulfoester
Human serum
  anticomplementary activity on human serum: anticomplementary activity

## Nc1ccc2cc(S(=O)(=O)[O-])cc(O)c2c1N=Nc1ccc(NC(=O)Nc2ccc(N=Nc3c(N)ccc4cc(S(=O)(=O)[O-])cc(O)c34)c(S(=O)(=O)[O-])c2)cc1S(=O)(=O)[O-].[Na+].[Na+].[Na+].[Na+] [chlorazol fast pink, 3,3'-ureylenebis[6-(2-amino-8-hydroxy-6-sulfo-1-naphthylazo)benzenesulfonic acid], tetrasodium salt]
Complement system
  anti-complementary effect: anti-complementary effect

## NC[C@H]1CC[C@H](C(=O)O)CC1 [tranexamic acid]
[1]
  treatment of hereditary angioneurotic edema: used with success

## heparin
Complement system
  anti-complementary effect: anti-complementary effect

## NCCCCCC(=O)O [epsilon-aminocaproic acid]
[1]
  treatment of hereditary angioneurotic edema: used with success

## O=S(=O)(O)OCC1OC(OCC2OC(COS(=O)(=O)O)(OC3OC(COC4OC(COC5OC(COS(=O)(=O)O)C(OS(=O)(=O)O)C(OS(=O)(=O)O)C5OS(=O)(=O)O)C(OS(=O)(=O)O)C(OS(=O)(=O)O)C4OS(=O)(=O)O)C(OS(=O)(=O)O)C(OS(=O)(=O)O)C3OS(=O)(=O)O)C(OS(=O)(=O)O)C2OS(=O)(=O)O)C(OS(=O)(=O)O)C(OS(=O)(=O)O)C1OC1OC(COS(=O)(=O)O)C(OC2OC(COS(=O)(=O)O)C(OS(=O)(=O)O)C(OS(=O)(=O)O)C2OS(=O)(=O)O)C(OS(=O)(=O)O)C1OS(=O)(=O)O [drawing 12, O-α-D-Galactopyranosyl(1→6)-O-α-D-galactopyranosyl(1.fwd arw.6)-O-α-D-glucopyranosyl(1→2)-O-β-D-fructofuranosyl(1→6)-O-α-D-glucopyranosyl(1→4)-O-α-D-glucopyranosyl-α-D-glucopyranoside, tricosakis (H-sulfate), tricosasodium salt]
Shunt pathway
  C-Shunt Inhibition 036* Wells: +5 Wells
[2]
  C-Late 035* Wells: N
Activated human C1
  Cl 026* Wells: +9 Wells
Complement activity; serum 30 minutes after injection
  In vivo Activity (Guinea Pigs) % Inhibition Intraperitoneal, 30 minutes: 63%
Complement activity; serum 60 minutes after injection
  In vivo Activity (Guinea Pigs) % Inhibition Intraperitoneal, 60 minutes: 61%
Complement activity; serum 120 minutes after injection
  In vivo Activity (Guinea Pigs) % Inhibition Intraperitoneal, 120 minutes: 67%

## O=S(=O)(O)OCC1OC(OCC2OC(COS(=O)(=O)O)(OC3OC(COC4OC(COC5OC(COS(=O)(=O)O)C(OS(=O)(=O)O)C(OS(=O)(=O)O)C5OS(=O)(=O)O)C(OS(=O)(=O)O)C(OS(=O)(=O)O)C4OS(=O)(=O)O)C(OS(=O)(=O)O)C(OS(=O)(=O)O)C3OS(=O)(=O)O)C(OS(=O)(=O)O)C2OS(=O)(=O)O)C(OS(=O)(=O)O)C(OS(=O)(=O)O)C1OC1OC(COS(=O)(=O)O)C(OC2OC(COS(=O)(=O)O)C(OS(=O)(=O)O)C(OS(=O)(=O)O)C2OS(=O)(=O)O)C(OS(=O)(=O)O)C1OS(=O)(=O)O [drawing 11, O-α-D-Galactopyranosyl(1→6)-O-α-D-galactopyranosyl(1→6)-O-α-D-glucopyranosyl(1→2)-O-β-D-fructofuranosyl(1→6)-O-α-D-glucopyranosyl(1→4)-O-α-D-glucopyranosyl-α-D-glucopyranoside, tricosakis (H-sulfate), tricosasalt with trimethylamine]
Shunt pathway
  C-Shunt Inhibition 036* Wells: +5 Wells
[2]
  C-Late 035* Wells: N
Activated human C1
  Cl 026* Wells: +9 Wells

From US4359459A, “O-α-D-Multigalactopyranosyl-O-α-D-multiglucopyranosyl-O-β- D” (American Cyanamid Company, priority 1981, dated 1982)
